This passage reports Ki and IC50 results from patent publication US11702418B2, “SOS1 inhibitors” (priority 2019, dated 2023).

For experiment [1], the target named is recombinant human SOS1 polypeptide (amino acids 560-1049) (Homo sapiens (Human), UniProt Q07889). Kind of experiment: biochemical. In kind it is binding. To be noted: read-out: Ki, Inhibition of Labeled Tracer Binding to SOS1.
In another experiment the test system is pERK in MKN1 cells. The experiment can be described thus: cells. The format is cell-based.
The mark [2] stands for this setting: HTRF displacement, Cy5 labelled tracer, Morrison equation for competitive binding.
Where [3] appears, read: Homo sapiens, MKN-1, pERK inhibition, In-Cell Western, MKN1 or H358 cells (Table 24 does not say which), 0.5-1 hour incubation, read-out: IC50.

Where a name gives a salt, the structure may show the parent alone. Read-outs that look alike come from different tables or passages of the source.

recombinant human SOS1 polypeptide (amino acids 560-1049), sequence (Q07889 560-1049): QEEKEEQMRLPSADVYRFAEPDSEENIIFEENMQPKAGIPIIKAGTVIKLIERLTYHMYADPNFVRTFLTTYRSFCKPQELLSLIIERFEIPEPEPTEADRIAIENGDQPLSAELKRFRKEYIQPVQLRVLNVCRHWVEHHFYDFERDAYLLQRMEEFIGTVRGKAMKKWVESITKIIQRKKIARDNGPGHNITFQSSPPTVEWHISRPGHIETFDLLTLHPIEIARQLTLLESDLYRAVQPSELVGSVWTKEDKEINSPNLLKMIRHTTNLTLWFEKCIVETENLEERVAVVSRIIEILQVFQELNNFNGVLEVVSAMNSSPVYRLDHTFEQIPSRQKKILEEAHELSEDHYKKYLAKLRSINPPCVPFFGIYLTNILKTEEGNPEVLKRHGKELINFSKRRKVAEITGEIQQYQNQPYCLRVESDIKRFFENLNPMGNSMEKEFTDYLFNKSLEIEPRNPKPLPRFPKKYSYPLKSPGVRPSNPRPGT

A word on the Ki: it is the equilibrium dissociation constant of an inhibitor or competing ligand from its target. Usually IC50 stands for the concentration at which inhibition is half-maximal. Consider `Cc1c([C@@H](C)Nc2nnc(C)c3ccc(OC4COC4)cc23)cccc1C(F)(F)F` [Example 13-2, (R)-4-methyl-N-(1-(2-methyl-3-(trifluoromethyl)phenyl)ethyl)-7-(oxetan-3-yloxy)phthalazin-1-amine], for which the Ki in experiment [1] (setting [2]) was 191 nM. Further, in the experiment with pERK in MKN1 cells (setting [3]), the IC50 is 2070 nM.

With `Cc1c(C#N)cccc1[C@@H](C)Nc1nnc(C)c2cnc(N3CCN4CCOC[C@@H]4C3)cc12` [Example 12-27], the Ki in experiment [1] (setting [2]) came out at 2.81 nM. For the same compound, in the experiment with pERK in MKN1 cells (setting [3]), the IC50 was 14 nM.

As for `Cc1nnc(N[C@H](C)c2cccc(C(F)(F)F)c2F)c2cc(N3CC(N(C)C)C3)ccc12` [Example 10-76, (R)-7-(3-(dimethylamino)azetidin-1-yl)-N-(1-(2-fluoro-3-(trifluoromethyl)phenyl)ethyl)-4-methylphthalazin-1-amine], the Ki in experiment [1] (setting [2]) is 3.44 nM. For the same compound, the IC50 with pERK in MKN1 cells (setting [3]) is 85 nM.

For the compound `Cc1c(C#N)cccc1[C@@H](C)Nc1nnc(C)c2ccc(N3CCN4CCOC[C@@H]4C3)cc12` [Example 10-56, 3-((R)-1-((7-((S)-hexahydropyrazino[2,1-c][1,4]oxazin-8(1H)-yl)-4-methylphthalazin-1-yl)amino)ethyl)-2-methylbenzonitrile Formate salt], in experiment [1], the Ki amounted to 1.59 nM. Also, the IC50 in the experiment on pERK in MKN1 cells (Homo sapiens, MKN-1) worked out at 26 nM.

With `Cc1c(C#N)cccc1[C@@H](C)Nc1nnc(C)c2ccc(N3CC(N(C)C)C3)cc12` [Example 10-75, (R)-3-(1-((7-(3-(dimethylamino)azetidin-1-yl)-4-methylphthalazin-1-yl)amino)ethyl)-2-methylbenzonitrile Hydrochloride salt], in experiment [1], the Ki came out at 6.51 nM. In the experiment with pERK in MKN1 cells (Homo sapiens, MKN-1), half-maximal inhibition (IC50) was put at 56 nM.

In the case of `Cc1nnc(N[C@H](C)c2cccc(C(F)F)c2F)c2cc(N3CC(C)(O)C3)ncc12` [Example 12-101], the Ki in experiment [1] (setting [2]) was 1.45 nM. Moreover, the IC50 in the experiment on pERK in MKN1 cells (setting [3]) amounted to 22 nM.

With `Cc1c([C@@H](C)Nc2nnc(C)c3ccc(N4CCOCC4)cc23)cc(F)cc1C(F)(F)F` [Example 21-8, (R)—N-(1-(5-fluoro-2-methyl-3-(trifluoromethyl)phenyl)ethyl)-4-methyl-7-morpholinophthalazin-1-amine], the Ki in experiment [1] (setting [2]) was found to be 3.17 nM. Besides, the IC50 with pERK in MKN1 cells (setting [3]) amounted to 90 nM.

`Cc1c([C@@H](C)Nc2nnc(C)c3ccc(N4CC[C@@H](N(C)C)C(F)(F)C4)cc23)cccc1C(F)(F)F` [Example 21-5, 7-((R)-4-(dimethylamino)-3,3-difluoropiperidin-1-yl)-4-methyl-N—((R)-1-(2-methyl-3-(trifluoromethyl)phenyl)ethyl)phthalazin-1-amine]: in experiment [1] (setting [2]), the Ki came to 1.34 nM. For the same compound, the IC50 in the experiment with pERK in MKN1 cells (setting [3]) came to 1110 nM.

In the case of `Cc1c(Cl)cccc1[C@@H](C)Nc1nnc(C)c2cnc(N3CCOCC3)cc12` [Example 6-18, (R)-N-(1-(3-chloro-2-methylphenyl)ethyl)-4-methyl-7-morpholinopyrido[3,4-d]pyridazin-1-amine], in experiment [1] (setting [2]), the Ki turned out to be 317 nM. The IC50 in the experiment with pERK in MKN1 cells (setting [3]) was 3700 nM.

With `Cc1c(C(F)F)cccc1[C@@H](C)Nc1nnc(C)c2ccc(N3CCOCC3)cc12` [Example 10-65, (R)-N-(1-(3-(difluoromethyl)-2-methylphenyl)ethyl)-4-methyl-7-morpholinophthalazin-1-amine Hydrochloride salt], the Ki in experiment [1] was found to be 0.95 nM. This compound also came in with an IC50 with pERK in MKN1 cells (Homo sapiens, MKN-1) of 23 nM.

Regarding `Cc1c([C@@H](C)Nc2nncc3ccc(N4CCn5cncc5C4)cc23)cccc1C(F)(F)F` [Example 1-48, (R)-7-(5,6-dihydroimidazo[1,5-a]pyrazin-7(8H)-yl)-N-(1-(2-methyl-3-(trifluoromethyl)phenyl)ethyl)phthalazin-1-amine], the Ki in experiment [1] (setting [2]) turned out to be 0.56 nM. For the same compound, the IC50 in the experiment on pERK in MKN1 cells (setting [3]) was 364 nM.

For the compound `Cc1c(C#N)cc(F)cc1[C@@H](C)Nc1nnc(C)c2cnc(N3C[C@H]4C[C@@H]3CO4)cc12` [Example 12-105], the Ki in experiment [1] (setting [2]) is 10.9 nM. Also, the IC50 in the experiment on pERK in MKN1 cells (setting [3]) is 97 nM.

Regarding `Cc1c(C#N)cccc1[C@@H](C)Nc1nnc(C)c2cnc(N3C[C@H]4CC[C@@H]3CN4C)cc12` [Example 12-40], in experiment [1] (setting [2]), the Ki was 0.64 nM. In the experiment with pERK in MKN1 cells (setting [3]), the IC50 was determined as 24 nM.

In the case of `Cc1nnc(N[C@H](C)c2cc(F)cc(C#N)c2)c2cc(N3CCOCC3)ncc12` [Example 6-17, (R)-3-fluoro-5-(1-((4-methyl-7-morpholinopyrido[3,4-d]pyridazin-1-yl)amino)ethyl)benzonitrile], the Ki in experiment [1] (setting [2]) was 56.5 nM. Besides, in the experiment on pERK in MKN1 cells (setting [3]), the IC50 was found to be 412 nM.

For the compound `Cc1cn2c(n1)CN(c1ccc3cnnc(N[C@H](C)c4cccc(C(F)(F)F)c4C)c3c1)CC2` [Example 1-40, (R)-N-(1-(2-methyl-3-(trifluoromethyl)phenyl)ethyl)-7-(2-methyl-5,6-dihydroimidazo[1,2-a]pyrazin-7(8H)-yl)phthalazin-1-amine], in experiment [1] (setting [2]), the inhibition constant Ki is 0.27 nM. Besides, the IC50 in the experiment on pERK in MKN1 cells (setting [3]) turned out to be 171 nM.

Consider `Cc1cccc([C@@H](C)Nc2nnc(C)c3cnc(N4CC(C)(N(C)C)C4)cc23)c1F` [Example 12-133], for which the Ki in experiment [1] (setting [2]) came to 11.5 nM. In the experiment with pERK in MKN1 cells (setting [3]), the concentration for half-maximal inhibition (IC50) was 97 nM.

With `Cc1c(C#N)cccc1[C@@H](C)Nc1nnc(C)c2cnc(N3CCC(N(C)C)CC3)cc12` [Example 12-28], in experiment [1] (setting [2]), the Ki came out at 1.53 nM. Moreover, the concentration for half-maximal inhibition (IC50) with pERK in MKN1 cells (setting [3]) stood at 17 nM.

As to `Cc1nnc(N[C@H](C)c2cccc(C(F)F)c2F)c2cc(N3C[C@H]4C[C@@H]3CO4)ccc12` [Example 10-85, 7-((1R,4R)-2-oxa-5-azabicyclo[2.2.1]heptan-5-yl)-N-((R)-1-(3-(difluoromethyl)-2-fluorophenyl)ethyl)-4-methylphthalazin-1-amine], the Ki in experiment [1] (setting [2]) worked out at 0.78 nM. In addition, the concentration for half-maximal inhibition (IC50) in the experiment with pERK in MKN1 cells (setting [3]) worked out at 18 nM.

Consider `Cc1c([C@@H](C)Nc2nnc(C)c3ccc(N4CCNC[C@H](F)C4)cc23)cccc1C(F)(F)F` [Example 10-62, 7-((S)-6-fluoro-1,4-diazepan-1-yl)-4-methyl-N-((R)-1-(2-methyl-3-(trifluoromethyl)phenyl)ethyl)phthalazin-1-amine Hydrochloride salt], for which the Ki in experiment [1] turned out to be 0.9 nM. The same compound yielded an IC50 in the experiment on pERK in MKN1 cells (Homo sapiens, MKN-1) of 76 nM.

As for `Cc1c(C(F)F)cccc1[C@@H](C)Nc1nnc(C)c2ccc(N3CCC(N4CCC4)CC3)cc12` [Example 10-44, (R)-7-(4-(azetidin-1-yl)piperidin-1-yl)-N-(1-(3-(difluoromethyl)-2-methylphenyl)ethyl)-4-methylphthalazin-1-amine hydrochloride salt], the Ki in experiment [1] was 0.51 nM. The compound also showed an IC50 with pERK in MKN1 cells (Homo sapiens, MKN-1) of 53 nM.

Consider `Cc1c([C@@H](C)Nc2nncc3ccc(N4CCN(C)C(=O)C4)cc23)cccc1C(F)(F)F` [Example 1-30, (R)-1-methyl-4-(4-((1-(2-methyl-3-(trifluoromethyl)phenyl)ethyl)amino)phthalazin-6-yl)piperazin-2-one], for which the IC50 with pERK in MKN1 cells (setting [3]) came to 79 nM.

In the case of `Cc1c([C@@H](C)Nc2nncc3ccc(N4CCCC(N5CCC5)C4)cc23)cccc1C(F)(F)F` (stereo partly drawn) [Example 1-49, 7-(3-(azetidin-1-yl)piperidin-1-yl)-N-((R)-1-(2-methyl-3-(trifluoromethyl)phenyl)ethyl)phthalazin-1-amine], the IC50 in the experiment on pERK in MKN1 cells (setting [3]) came to 426 nM.

Turning to `Cc1c([C@@H](C)Nc2nncc3ccc(N4CCC5C(CCN5C)C4)cc23)cccc1C(F)(F)F` (stereo partly drawn) [Example 1-35, N-((R)-1-(2-methyl-3-(trifluoromethyl)phenyl)ethyl)-7-(1-methyloctahydro-5H-pyrrolo[3,2-c]pyridin-5-yl)phthalazin-1-amine], the half-maximal inhibitory concentration (IC50) in the experiment with pERK in MKN1 cells (setting [3]) was found to be 123 nM.

For the compound “4-methyl-N—((R)-1-(5-(2-((methylamino)methyl(phenyl)thiophen-2-yl)ethyl)-7-(((S)-tetrahydrofuran-3-yl)oxy)phthalazin-1-amine [Example 7-1]”, the concentration for half-maximal inhibition (IC50) in the experiment on pERK in MKN1 cells (read-out: IC50) came to 79 nM.

As for `Cc1c([C@@H](C)Nc2nncc3ccc(N4CCn5c(nc6c5CCCC6)C4)cc23)cccc1C(F)(F)F` [Example 1-45, (R)-7-(3,4,6,7,8,9-hexahydrobenzo[4,5]imidazo[1,2-a]pyrazin-2(1H)-yl)-N-(1-(2-methyl-3-(trifluoromethyl)phenyl)ethyl)phthalazin-1-amine], in the experiment with pERK in MKN1 cells (setting [3]), the IC50 amounted to 335 nM.

In the case of `COc1nnc(N[C@H](C)c2cccc(C(F)(F)F)c2C)c2cc(N3CCNCC3)ccc12` [Example 9-1, (R)-4-methoxy-N-(1-(2-methyl-3-(trifluoromethyl)phenyl)ethyl)-7-(piperazin-1-yl)phthalazin-1-amine], the IC50 in the experiment on pERK in MKN1 cells (setting [3]) was above 10000 nM.

`Cc1c([C@@H](C)Nc2nncc3ccc(N4CCOC5(CCOC5)C4)cc23)cccc1C(F)(F)F` (stereo partly drawn) [Example 1-41, N-((R)-1-(2-methyl-3-(trifluoromethyl)phenyl)ethyl)-7-(2,6-dioxa-9-azaspiro[4.5]decan-9-yl)phthalazin-1-amine]: the IC50 with pERK in MKN1 cells (setting [3]) was determined as 195 nM.

For `Cc1nnc(N[C@H](C)c2ccc(Cl)cc2Cl)c2cc(N3CCNCC3)ccc12` [Example 10-21, (R)-N-(1-(2,4-dichlorophenyl)ethyl)-4-methyl-7-(piperazin-1-yl)phthalazin-1-amine], in the experiment with pERK in MKN1 cells (setting [3]), the IC50 was found to be 444 nM.

In the case of `Cc1c([C@@H](C)Nc2nnc(C)c3cnc(N4C[C@@H](C)O[C@H](C)C4)cc23)cccc1C(F)(F)F` [Example 12-5], the IC50 in the experiment with pERK in MKN1 cells (setting [3]) is 850 nM.

Consider `Cc1c([C@@H](C)Nc2nnc(C)c3ccc(-n4cccn4)cc23)cccc1C(F)(F)F` [Example 10-17, (R)-4-methyl-N-(1-(2-methyl-3-(trifluoromethyl)phenyl)ethyl)-7-(1H-pyrazol-1-yl)phthalazin-1-amine], for which, in the experiment with pERK in MKN1 cells (setting [3]), the IC50 is 2630 nM.

Consider `Cc1nnc(N[C@H](C)c2ccc(Cl)cc2Cl)c2cc(N3CCOCC3)ccc12` [Example 10-20, (R)-N-(1-(2,4-dichlorophenyl)ethyl)-4-methyl-7-morpholinophthalazin-1-amine], for which the half-inhibitory concentration (IC50) with pERK in MKN1 cells (setting [3]) worked out at 1650 nM.

`Cc1c([C@@H](C)Nc2nnc(CN)c3ccc(N4CCOCC4)cc23)cccc1C(F)(F)F` [Example 14-2, (R)-4-(aminomethyl)-N-(1-(2-methyl-3-(trifluoromethyl)phenyl)ethyl)-7-morpholinophthalazin-1-amine]: half-maximal inhibition in the experiment with pERK in MKN1 cells (Homo sapiens, MKN-1, pERK inhibition, In-Cell Western, MKN1 or H358 cells (Table 24 does not say which), 0.5-1 hour incubation) (IC50) was put at 139 nM.
